{"source": "ChEMBL document CHEMBL3243928", "about": "“N-(2,4,5-Trihydroxyphenehtyl)normetazocine, a potential irreversible inhibitor of the narcotic receptor” (J Med Chem, 1977)", "key": {"Mus musculus [1]": {"system": "Mus musculus", "assay": "Ratio of morphine to compound for analgesic activity in ip dosed mouse", "format": "functional"}, "Mus musculus [2]": {"system": "Mus musculus", "assay": "Inhibition of norepinephrine release in sc dosed mouse heart administered 60 mins before [3H]-norepinephrine challenge", "format": "functional"}, "Mus musculus [3]": {"system": "Mus musculus", "assay": "Toxicity in mouse at 80 mg/kg, iv", "format": "organism-based", "parameters": "dose 80 mg/kg, route intravenous", "conditions": "in vivo"}, "Mus musculus [4]": {"system": "Mus musculus", "assay": "Inhibition of norepinephrine release in mouse heart at >150 umol/kg, sc administered 60 mins before [3H]-norepinephrine challenge", "format": "functional, organism-based"}, "NG108-15 [5]": {"system": "NG108-15", "assay": "Antagonist activity at opiate receptor in mouse/rat NG108-15 cells assessed as inhibition of adenylate cyclase activity at 2 x 10^-4 M after 3 mins", "format": "cell-based"}, "Mus musculus [6]": {"system": "Mus musculus", "assay": "Antinociceptive activity in mouse at 50 mg/kg, sc by hot-plate assay", "format": "functional, organism-based", "parameters": "dose 50 mg/kg"}, "NG108-15 [7]": {"system": "NG108-15", "assay": "Antagonist activity at opiate receptor in mouse/rat NG108-15 cells assessed as inhibition of adenylate cyclase activity at 10^-3 M after 3 mins", "format": "cell-based"}, "Mus musculus [8]": {"system": "Mus musculus", "assay": "Toxicity in iv dosed mouse", "format": "organism-based", "conditions": "in vivo"}, "Mus musculus [9]": {"system": "Mus musculus", "assay": "Toxicity in mouse at 5 mg/kg, iv", "format": "organism-based", "parameters": "dose 5 mg/kg, route intravenous", "conditions": "in vivo"}, "[10]": {"biological_target": "Opioid receptor (Rattus norvegicus) (UniProt P33533+P34975+P33535)", "sequence (P33533 whole entry, looked up)": "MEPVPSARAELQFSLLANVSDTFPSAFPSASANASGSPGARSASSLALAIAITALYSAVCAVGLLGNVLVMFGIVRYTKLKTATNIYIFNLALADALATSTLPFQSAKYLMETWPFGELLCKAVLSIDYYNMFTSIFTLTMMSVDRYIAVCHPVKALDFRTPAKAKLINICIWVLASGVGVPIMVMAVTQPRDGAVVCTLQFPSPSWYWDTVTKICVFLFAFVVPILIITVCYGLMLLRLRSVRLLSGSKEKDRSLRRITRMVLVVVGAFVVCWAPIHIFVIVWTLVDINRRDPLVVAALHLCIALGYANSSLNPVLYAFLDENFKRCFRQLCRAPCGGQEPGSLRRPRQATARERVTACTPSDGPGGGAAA", "sequence (P33535 whole entry, looked up)": "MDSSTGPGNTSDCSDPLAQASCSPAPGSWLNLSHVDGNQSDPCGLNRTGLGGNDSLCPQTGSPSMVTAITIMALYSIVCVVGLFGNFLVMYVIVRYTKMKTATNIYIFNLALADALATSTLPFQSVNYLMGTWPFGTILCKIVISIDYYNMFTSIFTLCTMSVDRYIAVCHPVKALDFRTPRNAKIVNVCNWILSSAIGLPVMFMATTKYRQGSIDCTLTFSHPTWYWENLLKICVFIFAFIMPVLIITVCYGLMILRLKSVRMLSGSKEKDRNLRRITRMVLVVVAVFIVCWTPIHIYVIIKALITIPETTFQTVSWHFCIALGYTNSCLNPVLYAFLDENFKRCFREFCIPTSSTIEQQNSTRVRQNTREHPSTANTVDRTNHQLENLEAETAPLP", "sequence (P34975 whole entry, looked up)": "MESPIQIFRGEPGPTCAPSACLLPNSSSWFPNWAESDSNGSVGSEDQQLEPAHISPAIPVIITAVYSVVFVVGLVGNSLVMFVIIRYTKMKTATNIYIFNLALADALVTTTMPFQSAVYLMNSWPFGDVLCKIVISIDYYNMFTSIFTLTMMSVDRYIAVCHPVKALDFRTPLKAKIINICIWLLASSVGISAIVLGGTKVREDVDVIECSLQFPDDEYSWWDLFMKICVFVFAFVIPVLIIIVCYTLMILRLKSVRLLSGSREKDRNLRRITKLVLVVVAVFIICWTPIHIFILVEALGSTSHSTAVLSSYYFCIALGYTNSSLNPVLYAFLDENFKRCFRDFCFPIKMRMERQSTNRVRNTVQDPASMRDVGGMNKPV", "assay": "Ratio of morphine to compound for binding affinity to rat brain opiate receptor"}, "NG108-15 [11]": {"system": "NG108-15", "assay": "Antagonist activity at opiate receptor in mouse/rat NG108-15 cells assessed as inhibition of adenylate cyclase activity at 10^-7 M after 3 mins", "format": "cell-based"}, "[12]": {"conditions": "Mus musculus, sc, read-out: ED50"}}, "note": "Calls of active or inactive are those of the source. The calls are words filed in the database; no cut-off is given here."}
{"smiles": "CC1C2Cc3ccc(O)cc3C1(C)CCN2CCc1ccc(N)cc1", "note": "(stereo not drawn)", "values": [{"measurement": "Ratio", "setting": "Mus musculus [1]", "value": 20}]}
{"smiles": "CN(C)CCc1ccc(O)cc1", "note": "[HORDENINE]", "values": [{"measurement": "ED50", "setting": "Mus musculus [2]; [12]", "value": "> 400", "unit": "µmol/kg"}]}
{"smiles": "CC1C2Cc3ccc(O)cc3C1(C)CCN2CCc1cc(O)c(O)cc1O.I", "note": "(stereo not drawn)", "values": [{"measurement": "Activity", "setting": "Mus musculus [3]", "value": "Non-toxic"}, {"measurement": "inhibition", "setting": "Mus musculus [4]", "value": "inactive"}, {"measurement": "ED50", "setting": "Mus musculus [2]", "value": 0, "unit": "µmol/kg"}, {"measurement": "inhibition", "setting": "NG108-15 [5]", "value": "inactive"}, {"measurement": "Activity", "setting": "Mus musculus [6]", "value": "Active"}, {"measurement": "inhibition", "setting": "NG108-15 [7]", "value": "Active"}]}
{"smiles": "CC(N)Cc1ccc(O)cc1", "note": "(stereo not drawn) [HYDROXYAMPHETAMINE]", "values": [{"measurement": "ED50", "setting": "Mus musculus [2]; [12]", "value": 13, "unit": "µmol/kg"}]}
{"smiles": "COc1ccc(CCN2CCC3(C)c4cc(O)ccc4CC2C3C)cc1", "note": "(stereo not drawn)", "values": [{"measurement": "Ratio", "setting": "Mus musculus [1]", "value": 8}]}
{"smiles": "COC(=O)[C@H]1[C@@H](OC(=O)c2ccccc2)C[C@@H]2CC[C@H]1N2C", "note": "[COCAINE]", "values": [{"measurement": "ED50", "setting": "Mus musculus [2]", "value": 0, "unit": "µmol/kg"}]}
{"smiles": "C[C@H]1C2Cc3ccc(O)cc3C1(C)CCN2", "note": "(stereo partly drawn)", "values": [{"measurement": "Activity", "setting": "Mus musculus [8]", "value": "Toxic"}, {"measurement": "LD100", "setting": "Mus musculus [9]", "value": 10, "unit": "mg/kg"}]}
{"smiles": "Nc1ccc(CCN2CC[C@]34CCCC[C@H]3[C@H]2Cc2ccc(O)cc24)cc1", "values": [{"measurement": "Ratio", "setting": "[10]", "value": "> 10"}]}
{"smiles": "CN1CC[C@]23c4c5ccc(O)c4O[C@H]2[C@@H](O)C=C[C@H]3[C@H]1C5", "values": [{"measurement": "inhibition", "setting": "NG108-15 [11]", "value": "Active"}]}
{"smiles": "CC(N)Cc1cc(O)c(O)cc1O", "note": "(stereo not drawn)", "values": [{"measurement": "ED50", "setting": "Mus musculus [2]; [12]", "value": 4.2, "unit": "µmol/kg"}]}
{"smiles": "NCCc1cc(O)c(O)cc1O", "note": "[OXIDOPAMINE]", "values": [{"measurement": "ED50", "setting": "Mus musculus [2]; [12]", "value": 6.8, "unit": "µmol/kg"}]}
{"smiles": "CC1C2Cc3ccc(O)cc3C1(C)CCN2CCc1ccccc1", "note": "(stereo not drawn) [PHENAZOCINE]", "values": [{"measurement": "Ratio", "setting": "Mus musculus [1]", "value": 10}]}
